# Test results from PubChem BioAssay (NCI).
#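 Step 1: Grow cells in 96-well plates. Step 2: Expose to compound for 48 hours at 5 concentrations. Step 3: Interpolate endpoints linearly; if unreached, use highest concentration. At the GI50, growth is halved. At the TGI there is no net growth.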
# System: BT-549 breast
# Assay: NCI tumour cell line growth inhibition, 48 h
row,SMILES,TGI [µM]
1,COc1ccc(-c2c(C#N)c(N)nc3c2CCS(=O)(=O)c2ccccc2-3)cc1,> 100

# System: NCI/ADR-RES ovarian
# Assay: NCI tumour cell line growth inhibition, 48 h
SMILES,GI50 [µM],TGI [µM]
COc1cc(C2=NOC(c3cc(OC)c(OC)c(OC)c3)C2)ccc1OCCCCOc1cc2c(cc1OC)C(=O)N1CCC[C@H]1C=N2 (stereo not given in full),2.82,9.35
N#Cc1ccc(NC(=O)Nc2ccc(Oc3ccc(NC(=O)Nc4ccc(C#N)cc4)cc3)cc2)cc1,13,> 100
COc1ccc(-c2c(C#N)c(N)nc3c2CCS(=O)(=O)c2ccccc2-3)cc1,–,> 100
Nc1cc(N)c2nc(-c3ccccc3)c(Nc3ccc(Cl)c(Cl)c3)nc2c1,15.4,55.3
O=C(Cc1ccccc1)NN1C(=O)/C(=C\c2ccc([N+](=O)[O-])cc2)SC1=Nc1ccccc1,–,> 100

# System: MDA-MB-231 breast
# Assay: NCI tumour cell line growth inhibition, 48 h
SMILES,GI50 [µM],TGI [µM]
COc1cc(C2=NOC(c3cc(OC)c(OC)c(OC)c3)C2)ccc1OCCCCOc1cc2c(cc1OC)C(=O)N1CCC[C@H]1C=N2 (stereo not given in full),0.235,0.75
N#Cc1ccc(NC(=O)Nc2ccc(Oc3ccc(NC(=O)Nc4ccc(C#N)cc4)cc3)cc2)cc1,12.4,> 100
COc1ccc(-c2c(C#N)c(N)nc3c2CCS(=O)(=O)c2ccccc2-3)cc1,–,> 100
Nc1cc(N)c2nc(-c3ccccc3)c(Nc3ccc(Cl)c(Cl)c3)nc2c1,5.72,27.8
O=C(Cc1ccccc1)NN1C(=O)/C(=C\c2ccc([N+](=O)[O-])cc2)SC1=Nc1ccccc1,–,> 100

# System: COLO 205 colon
# Assay: NCI tumour cell line growth inhibition, 48 h
SMILES,GI50 [µM],TGI [µM]
COc1cc(C2=NOC(c3cc(OC)c(OC)c(OC)c3)C2)ccc1OCCCCOc1cc2c(cc1OC)C(=O)N1CCC[C@H]1C=N2 (stereo not given in full),0.245,0.586
N#Cc1ccc(NC(=O)Nc2ccc(Oc3ccc(NC(=O)Nc4ccc(C#N)cc4)cc3)cc2)cc1,24.6,> 100
COc1ccc(-c2c(C#N)c(N)nc3c2CCS(=O)(=O)c2ccccc2-3)cc1,–,> 100
Nc1cc(N)c2nc(-c3ccccc3)c(Nc3ccc(Cl)c(Cl)c3)nc2c1,11.7,31.3
O=C(Cc1ccccc1)NN1C(=O)/C(=C\c2ccc([N+](=O)[O-])cc2)SC1=Nc1ccccc1,–,> 100

# System: T-47D breast
# Assay: NCI tumour cell line growth inhibition, 48 h
SMILES,GI50 [µM],TGI [µM]
COc1cc(C2=NOC(c3cc(OC)c(OC)c(OC)c3)C2)ccc1OCCCCOc1cc2c(cc1OC)C(=O)N1CCC[C@H]1C=N2 (stereo not given in full),0.481,–
N#Cc1ccc(NC(=O)Nc2ccc(Oc3ccc(NC(=O)Nc4ccc(C#N)cc4)cc3)cc2)cc1,0.622,31.6
COc1ccc(-c2c(C#N)c(N)nc3c2CCS(=O)(=O)c2ccccc2-3)cc1,–,> 100
Nc1cc(N)c2nc(-c3ccccc3)c(Nc3ccc(Cl)c(Cl)c3)nc2c1,11.6,31.1
O=C(Cc1ccccc1)NN1C(=O)/C(=C\c2ccc([N+](=O)[O-])cc2)SC1=Nc1ccccc1,–,> 100

# System: M14 melanoma
# Assay: NCI tumour cell line growth inhibition, 48 h
SMILES,GI50 [µM],TGI [µM]
COc1cc(C2=NOC(c3cc(OC)c(OC)c(OC)c3)C2)ccc1OCCCCOc1cc2c(cc1OC)C(=O)N1CCC[C@H]1C=N2 (stereo not given in full),0.206,0.432
N#Cc1ccc(NC(=O)Nc2ccc(Oc3ccc(NC(=O)Nc4ccc(C#N)cc4)cc3)cc2)cc1,28.3,> 100
Nc1cc(N)c2nc(-c3ccccc3)c(Nc3ccc(Cl)c(Cl)c3)nc2c1,14.7,60
O=C(Cc1ccccc1)NN1C(=O)/C(=C\c2ccc([N+](=O)[O-])cc2)SC1=Nc1ccccc1,–,> 100

# System: HCT-15 colon
# Assay: NCI tumour cell line growth inhibition, 48 h
SMILES,GI50 [µM],TGI [µM]
COc1cc(C2=NOC(c3cc(OC)c(OC)c(OC)c3)C2)ccc1OCCCCOc1cc2c(cc1OC)C(=O)N1CCC[C@H]1C=N2 (stereo not given in full),1.46,5.43
N#Cc1ccc(NC(=O)Nc2ccc(Oc3ccc(NC(=O)Nc4ccc(C#N)cc4)cc3)cc2)cc1,18,> 100
COc1ccc(-c2c(C#N)c(N)nc3c2CCS(=O)(=O)c2ccccc2-3)cc1,–,> 100
Nc1cc(N)c2nc(-c3ccccc3)c(Nc3ccc(Cl)c(Cl)c3)nc2c1,21.2,> 100
O=C(Cc1ccccc1)NN1C(=O)/C(=C\c2ccc([N+](=O)[O-])cc2)SC1=Nc1ccccc1,–,> 100

# System: RXF 393 renal
# Assay: NCI tumour cell line growth inhibition, 48 h
SMILES,GI50 [µM],TGI [µM]
N#Cc1ccc(NC(=O)Nc2ccc(Oc3ccc(NC(=O)Nc4ccc(C#N)cc4)cc3)cc2)cc1,15.3,> 100
Nc1cc(N)c2nc(-c3ccccc3)c(Nc3ccc(Cl)c(Cl)c3)nc2c1,6.23,31.2
O=C(Cc1ccccc1)NN1C(=O)/C(=C\c2ccc([N+](=O)[O-])cc2)SC1=Nc1ccccc1,–,> 100

# System: UACC-257 melanoma
# Assay: NCI tumour cell line growth inhibition, 48 h
SMILES,GI50 [µM],TGI [µM]
COc1cc(C2=NOC(c3cc(OC)c(OC)c(OC)c3)C2)ccc1OCCCCOc1cc2c(cc1OC)C(=O)N1CCC[C@H]1C=N2 (stereo not given in full),0.286,0.727
N#Cc1ccc(NC(=O)Nc2ccc(Oc3ccc(NC(=O)Nc4ccc(C#N)cc4)cc3)cc2)cc1,29.1,> 100
COc1ccc(-c2c(C#N)c(N)nc3c2CCS(=O)(=O)c2ccccc2-3)cc1,–,> 100
Nc1cc(N)c2nc(-c3ccccc3)c(Nc3ccc(Cl)c(Cl)c3)nc2c1,11.4,28.2
O=C(Cc1ccccc1)NN1C(=O)/C(=C\c2ccc([N+](=O)[O-])cc2)SC1=Nc1ccccc1,–,> 100

# System: SF-539 CNS
# Assay: NCI tumour cell line growth inhibition, 48 h
SMILES,GI50 [µM],TGI [µM]
COc1cc(C2=NOC(c3cc(OC)c(OC)c(OC)c3)C2)ccc1OCCCCOc1cc2c(cc1OC)C(=O)N1CCC[C@H]1C=N2 (stereo not given in full),0.277,0.894
N#Cc1ccc(NC(=O)Nc2ccc(Oc3ccc(NC(=O)Nc4ccc(C#N)cc4)cc3)cc2)cc1,17.6,59.4
Nc1cc(N)c2nc(-c3ccccc3)c(Nc3ccc(Cl)c(Cl)c3)nc2c1,17.1,35.3
O=C(Cc1ccccc1)NN1C(=O)/C(=C\c2ccc([N+](=O)[O-])cc2)SC1=Nc1ccccc1,–,> 100

# System: MDA-MB-435
# Assay: NCI tumour cell line growth inhibition, 48 h
SMILES,GI50 [µM],TGI [µM]
COc1cc(C2=NOC(c3cc(OC)c(OC)c(OC)c3)C2)ccc1OCCCCOc1cc2c(cc1OC)C(=O)N1CCC[C@H]1C=N2 (stereo not given in full),0.179,0.371
N#Cc1ccc(NC(=O)Nc2ccc(Oc3ccc(NC(=O)Nc4ccc(C#N)cc4)cc3)cc2)cc1,17.1,> 100
COc1ccc(-c2c(C#N)c(N)nc3c2CCS(=O)(=O)c2ccccc2-3)cc1,–,> 100
Nc1cc(N)c2nc(-c3ccccc3)c(Nc3ccc(Cl)c(Cl)c3)nc2c1,2.16,4.59
O=C(Cc1ccccc1)NN1C(=O)/C(=C\c2ccc([N+](=O)[O-])cc2)SC1=Nc1ccccc1,–,> 100

# System: UO-31 renal
# Assay: NCI tumour cell line growth inhibition, 48 h
SMILES,GI50 [µM],TGI [µM]
COc1cc(C2=NOC(c3cc(OC)c(OC)c(OC)c3)C2)ccc1OCCCCOc1cc2c(cc1OC)C(=O)N1CCC[C@H]1C=N2 (stereo not given in full),0.239,0.745
N#Cc1ccc(NC(=O)Nc2ccc(Oc3ccc(NC(=O)Nc4ccc(C#N)cc4)cc3)cc2)cc1,22.2,> 100
COc1ccc(-c2c(C#N)c(N)nc3c2CCS(=O)(=O)c2ccccc2-3)cc1,–,> 100
Nc1cc(N)c2nc(-c3ccccc3)c(Nc3ccc(Cl)c(Cl)c3)nc2c1,11.1,36.3
O=C(Cc1ccccc1)NN1C(=O)/C(=C\c2ccc([N+](=O)[O-])cc2)SC1=Nc1ccccc1,–,> 100

# System: MALME-3M melanoma
# Assay: NCI tumour cell line growth inhibition, 48 h
SMILES,GI50 [µM],TGI [µM]
COc1cc(C2=NOC(c3cc(OC)c(OC)c(OC)c3)C2)ccc1OCCCCOc1cc2c(cc1OC)C(=O)N1CCC[C@H]1C=N2 (stereo not given in full),0.197,0.364
N#Cc1ccc(NC(=O)Nc2ccc(Oc3ccc(NC(=O)Nc4ccc(C#N)cc4)cc3)cc2)cc1,3.28,77.8
COc1ccc(-c2c(C#N)c(N)nc3c2CCS(=O)(=O)c2ccccc2-3)cc1,–,> 100
Nc1cc(N)c2nc(-c3ccccc3)c(Nc3ccc(Cl)c(Cl)c3)nc2c1,10.3,24.3

# System: UACC-62 melanoma
# Assay: NCI tumour cell line growth inhibition, 48 h
SMILES,GI50 [µM],TGI [µM]
COc1cc(C2=NOC(c3cc(OC)c(OC)c(OC)c3)C2)ccc1OCCCCOc1cc2c(cc1OC)C(=O)N1CCC[C@H]1C=N2 (stereo not given in full),0.171,0.335
N#Cc1ccc(NC(=O)Nc2ccc(Oc3ccc(NC(=O)Nc4ccc(C#N)cc4)cc3)cc2)cc1,11.1,> 100
COc1ccc(-c2c(C#N)c(N)nc3c2CCS(=O)(=O)c2ccccc2-3)cc1,–,> 100
Nc1cc(N)c2nc(-c3ccccc3)c(Nc3ccc(Cl)c(Cl)c3)nc2c1,13.1,29.9
O=C(Cc1ccccc1)NN1C(=O)/C(=C\c2ccc([N+](=O)[O-])cc2)SC1=Nc1ccccc1,–,> 100

# System: NCI-H522 lung
# Assay: NCI tumour cell line growth inhibition, 48 h
SMILES,GI50 [µM],TGI [µM]
COc1cc(C2=NOC(c3cc(OC)c(OC)c(OC)c3)C2)ccc1OCCCCOc1cc2c(cc1OC)C(=O)N1CCC[C@H]1C=N2 (stereo not given in full),0.217,2.13
N#Cc1ccc(NC(=O)Nc2ccc(Oc3ccc(NC(=O)Nc4ccc(C#N)cc4)cc3)cc2)cc1,10.9,95.5
COc1ccc(-c2c(C#N)c(N)nc3c2CCS(=O)(=O)c2ccccc2-3)cc1,–,> 100
Nc1cc(N)c2nc(-c3ccccc3)c(Nc3ccc(Cl)c(Cl)c3)nc2c1,5.3,21.7
